Patent US20220213030A1, “AMINOGUANIDINE HYDRAZONES AS RETROMER STABILIZERS USEFUL FOR TREATING NEUROLOGICAL DISEASES” (OSPEDALE SAN RAFFAELE SRL, priority 2019, published 2022)
“Also recorded” adds a separate entry of the source.

Columns and labels:
[1] = system: TNFα; assay: LPS-mediated TNFα release in Raw 264.7 cells (ELISA); format: cell-based, murine; details: 10 μM for 1 hour, then LPS 100 ng/ml, 4 hours
Source text: We observed that the molecular structure featuring compound 2a is reminiscent of the patented compound CNI-1493 (N,N′-bis [3,5 -bis [1(aminoiminomethyl) hydrazono]ethyl]phenyl]decanediamide tetrahydrochloride (CAS Reg. No. 164301-51-3)), (FIG. 16A). CNI-1493 inhibits macrophage activation in the animal model of Multiple Sclerosis producing a general amelioration of clinical and pathological outcomes of these mice (Martiney, Rajan et al. 1998). […] CNI-1493 suppresses the production of pro-inflammatory cytokines, belonging to the plethora of detrimental signals that accompany neurodegenerative processes in several disorders. […] We followed experimental procedures published by Bianchi and colleagues that describe the ability of CNI-1493 to blunt the production of this cytokine (Bianchi, Bloom et al. 1996). Cells were incubated with CNI-1493 (10 μM) or with compound 2a (10 μM) for 1 hour and then we added the LPS (100 ng/ml) to media. We next collected supernatants (4 hours after the LPS stimulation) form cells for the evaluation of TNFα levels.
Raw 264.7 cells (10^5/well) were treated with compound 2a, CNI-1493 or vehicle for 1 hour then we applied LPS (100 ng/ml) and supernatants were collected after 4 hours. […] Concentrations of TNFα were calculated according to a standard curve and expressed as nanograms per […]. […]

[2] = system: lysosomes in Neuro2a cells receiving G93A plasmids; assay: Lyso-tracker analysis of lysosomes in G93A-transfected Neuro2a; format: cell-based, mouse; details: 10 μM, 24 hours of starvation
Method: We next determined whether a reduction of VPS35 levels in Neuro2a cells could affect lysosomal homeostasis, mimicking what we and others observed in the ALS mouse model (Cheng 2018). We transfected Neuro2a cells with plasmids encoding the Sh56 RNAi to downregulate VPS35. After 24 hours of starvation, we analyzed the lysosomes using the Lyso-tracker. We observed an enlarged and abnormal distribution of lysosomes in cells with VPS35 interference by Sh56 (FIG. 15A-C). […] We asked whether G93A plasmids would also result in similar lysosomal alterations. We transfected Neuro2a cells with plasmids encoding G93A, with or without compound 2a (10 μM). After 24 hours of starvation, we monitored the lysosomes in such cells with the Lyso-tracker.

[3] = system: G93A mice; assay: Histopathology of sciatic nerves of G93A mice; format: in vivo, mouse; details: 10 mg/kg daily, day 100
Source text: We next performed histopathological analysis of sciatic nerves from WT control and G93A mice receiving compound 2a or vehicle. […] Using Luxol Fast Blue (LFB) staining, which binds lipoproteins of the myelin sheath, we analyzed myelination in sagittal sections of these nerves. […] Therefore, we observed a reduction of fibers degeneration and demyelination in sciatic nerves of G93A mice treated with compound 2a.
Comparative studies on sciatic nerves were done on tissues removed upon saline perfusion and rapidly fixed with 2% glutaraldehyde in 0.12 mol/L phosphate buffer, post fixed with 1% osmium tetroxide, and embedded in Epon (Fluka). Semi-thin sections (1 μm thick) were stained with toluidine blue and examined by light microscopy (Olympus BX51). Digitized not overlapping semi-thin section images from corresponding levels of the sciatic nerve were obtained with a digital camera (Leica DFC300F) using a 40X objective. Quantifications were done on at least 5 acquired images from each mouse. The numbers of degenerating nerve fibers were quantified using ImageJ software (National Institutes of Health, Bethesda, Md.).

[4] = system: Golgi apparatus (GM130); assay: GM130 Golgi labelling in MNs of G93A mice; format: in vivo, mouse; details: 10 mg/kg, day 100
Source text: Ubiquitinated inclusions accumulate in MNs of sALS and fALS patients and in lumbar SCs of ALS mice (Kabashi 2001). High levels of ubiquitinated proteins may represent an overwhelmed response of MNs to protein misfolding and aggregation, as well as a reduction of lysosome functionality. We characterized poly-ubiquitinated proteins in lumbar SCs protein extracts by 10% denaturating PAGE. We included in our experiments protein extracts from Neuro2a cells treated with the proteasome inhibitor Bortezomib (BTZ), able to increase poly-ubiquitination, as an experimental control (FIG. 13A). […] We next scored ubiquitin MFI levels in ventral horn MNs of G93A mice. […] As previously observed in Neuro2a cells, the overexpression of G93A plasmids affects the Golgi apparatus, therefore we asked whether similar alterations can occur in G93A mice by labeling lumbar sections for the cis-Golgi matrix protein GM130.
Sections from mice (frozen cryo sections) or glass covers containing cells were washed three times in PBS 1× (Lonza, 5 min each), and incubated in the following blocking mix: PBS 1×/FBS 10% (Invitrogen), BSA 1 mg/mL (Sigma), TritonX100 0.1% (Sigma), for 1 h at room temperature. Antibodies were diluted in blocking mix and incubated at +4° C. overnight according manufacturer's instructions. […]

**Q.** N=C(N)NN=Cc1cccc(C=NNC(=N)N)c1 [Compound 2a, 1,3-Bis-amino guanidine phenyl hydrazone] was tested. Which “TNFα levels in supernatants” value [1] did it give?
**A.** did not show any reduction of TNFα; also recorded: did not inhibit TNFα release

**Q.** What about the “enlarged lysosomes (Lyso-tracker-covered areas)” value [2] of the same compound?
**A.** significantly reverted this phenotype

**Q.** What about the “degenerating peripheral nerve fibers in sciatic nerves” value [3] of the same compound?
**A.** significant protection of peripheral nerve fibers

**Q.** What about the “demyelination (Luxol Fast Blue staining)” value [3] of the same compound?
**A.** substantial attenuation of the demyelination process

**Q.** What about the “myelin integrity (MBP and NF-M labelling)” value [3] of the same compound?
**A.** preserved the integrity of myelin

**Q.** What about the “reduction of GM130-covered areas in MNs” value [4] of the same compound?
**A.** substantially reverted
